Results: paper PMC4629797 (Organic & biomolecular chemistry, 2015)

Legend:
[1] = tested on: MCF-7 cell line (breast cancer); experiment: Cytotoxicity, standard MTT colorimetric assay, MCF-7; assay type: cell-based; conditions: read-out: IC50 MCF-7, MCF-7 breast cancer cells
20S proteasome = conditions: potency comparable to belactosins A and C; cited from earlier work
[2] = tested on: MCF10A cell line (normal breast epithelial cells); experiment: Cytotoxicity, standard MTT colorimetric assay, MCF10A; assay type: cell-based; conditions: read-out: IC50 MCF10A

Row | Structure (SMILES) | IC50 [1] [µM] | activity as 20S proteasome inhibitors (20S proteasome) | IC50 [2] [µM]
1 | CC(C)C1C(=O)OC1C(=O)N[C@H](C(=O)N[C@H](C(=O)O)C(C)C)C(C)C (single isomer, unassigned; (-)) [(−)-2, cystargolide B] | 84.7 ± 18.6 | exhibited activity as 20S proteasome inhibitors | > 100
2 | CC[C@H](C)[C@H](NC(=O)[C@@H](NC(=O)C1OC(=O)C1C(C)C)C(C)C)C(=O)O (single isomer, unassigned; (-)) [(−)-1, cystargolide A] | 58 ± 9.5 | exhibited activity as 20S proteasome inhibitors | > 100
